Experimental findings from US20230391868A1, “COMPOSITIONS FOR AND METHODS OF TREATING CANCER” (The George Washington University, priority 2022, published 2023) are described below.

The subject of assay [1] is SM1 cells. Briefly: Phagocytosis kinetics by live cell imaging. The format is cell-based, mouse. How it is done: After co-culture, slides were fixed in 4% paraformaldehyde. Slides were incubated overnight with primary anti-GFP antibody (Cell Signaling, 2956) at 4° C. Slides were incubated with goat anti-rabbit IgG conjugated to Alexa Fluor 488 (A11008, ThermoFisher). Slides were mounted using VECTASHIELD Antifade Mounting Medium with DAPI (H-1200-10, Vector Laboratories, Burlingame, CA). Slides were imaged using a Zeiss 710 confocal microscope. Phagocytosis was quantified using Fiji by Image J, and the percentage of phagocytosis was calculated by dividing the number of GFP+ macrophages containing red dye in their vesicles out of total GFP+ macrophages. Live imaging was performed following a similar protocol and images were acquired through ImageXpress Pico Automated Cell Imaging System (Molecular Devices, San Jose, CA, USA).
To assess the phagocytosis kinetics in those groups, live cell imaging was performed and phagocytosis was tracked for 4 hr. after the macrophages and SM1 cells were co-cultured for an hour. Images were acquired every four minutes thereafter.

Assay [2] deals with SM1 melanoma tumors. Briefly: Immunophenotyping of SM1 tumors by flow cytometry. The assay is classed as in vivo, mouse. How it is done: Flow Cytometry: Immunophenotyping of tumors by flow cytometry was performed following the protocol previously described (Knox T, et al. (2019) Sci. Rep. 9:6136; Banik D, et al. (2020) Cancer Res. 80:3649-3662). When control tumors reached the endpoint (2000 mm^3), mice were euthanized following the IACUC protocol at The George Washington University, and tumors were processed into a single-cell suspension for analysis by flow cytometry with tumor digestion buffer containing collagenases I and IV, hyaluronidase V, and DNAse I. Dead cells were discriminated using LIVE/DEAD™ Fixable Aqua Dead Cell Stain Kit (ThermoFisher Scientific, L34965). The antibodies used to stain cell surface markers were all purchased from BioLegend (San Diego, CA) unless otherwise mentioned. Myeloid cell surface markers include: APC/Fire 750 anti-mouse CD45.2 (clone 104), Brilliant Violet 421 anti-mouse/human CD11b (clone M1/70), Brilliant Violet 605 anti-mouse Ly-6G/Ly-6C (Gr-1) (clone RB6-8C5), Brilliant Violet 785 anti-mouse F4/80 (clone BM8), APC anti-mouse CD80 (clone 16-10A1), PerCP/Cyanine5.5 anti-mouse H-2Kd (clone SF1-1.1), PE/Cy7 anti-mouse CD206 (MMR) (clone C068C2), PE anti-mouse CD163 (clone 5B11), and Alexa Fluor 700 anti-mouse CD3 (clone 17A2). T cell surface markers are as follows: Brilliant Violet 785 anti-mouse CD45.2 (clone 104), PerCP/Cy5.5 anti-mouse CD3 (clone 17A2), APC/Fire 750 anti-mouse CD8a (clone 53-6.7), Brilliant Violet 650 anti-mouse CD4 (clone GK1.5), Brilliant Violet 605 anti-mouse CD44 (clone IM7), PE anti-mouse CD62L (clone MEL-14), and Pacific Blue anti-mouse CD25 (clone PC61). NK cell surface markers are as follows: Brilliant Violet 785 anti-mouse CD45.2 (clone 104), PerCP/Cy5.5 anti-mouse CD3 (clone 17A2), PE/Cy7 anti-mouse CD49b (pan-NK cells) (clone DX5), Brilliant Violet 421 anti-mouse CD16/32 (clone 93), Alexa Fluor 700 anti-mouse CD8a (clone 53-6.7), and PE anti-mouse 4-1BB (clone 17B5). Multicolor flow data was acquired using a BD FACS Celesta Cell Analyzer, and data analysis was performed with FlowJo software version 10.3. The gating strategies for each immune cell panel can be found in FIG. 11A-FIG. 11C.
To evaluate the effects of the single arms and combination therapy, the tumors were harvested at the experimental endpoint and immunophenotyping was performed by flow cytometry. Overall, the combination of NextA and anti-CD47 had immunomodulatory effects and enhanced immune cell infiltration in the TME. […] The different macrophage populations in the tumors were evaluated (FIG. 6B).

The subject of assay [3] is SIRPα. Briefly: Cell surface SIRPα expression by flow cytometry. The format is cell-based, mouse. The conditions noted are these: A31A7 macrophages and BMDMs; flow cytometry (FIG. 2C). The method, then:
Cell surface expression of CD47 in melanoma cells was evaluated using PE anti-mouse CD47 (clone miap301, […], Biolegend), PE anti-human CD47 (clone CC2C6, 323108, Biolegend), and their respective isotype controls (400508, 400113, respectively, Biolegend). SIRPα was evaluated using APC anti-mouse CD172a (SIRPα) antibody (clone P84, 144014, Biolegend) or APC anti-human CD172a/b (SIRPα/β) antibody (clone SE5A5, 323810, Biolegend) and their respective isotype controls (400411, Biolegend).
In general terms: Flow cytometry measures light scatter and fluorescence of single cells or particles in a stream.

The subject of assay [4] is A31A7 macrophages and BMDMs. Nature of the assay: Macrophage cell surface marker expression by flow cytometry. The format is cell-based, mouse. How it is done:
Bone marrow-derived macrophages were isolated from the femurs and tibias of wild-type C57/Bl6, HDAC6 knockout (C57BL/6J-Hdac6em2Lutzy/J, 029318, Jackson Laboratory), or UBC-GFP (C57BL/6-Tg(UBC-GFP)30Scha/J, 004353, Jackson Laboratory). Isolated bone marrow cells were cultured in RPMI 1640 complete medium with 10% FBS, 1% NEAA, and 1% penicillin-streptomycin in 5% CO2 at 37° C. Medium was supplemented with murine recombinant M-CSF (20 ng/mL, 576404, Biolegend) to differentiate monocytes into macrophages. Three days after bone marrow isolation, undifferentiated and floating cells were washed with PBS and replaced with fresh RPMI media. A3.1A7 cells and BMDMs were pretreated with 5 μM of HDAC6 inhibitor NextA or vehicle prior to adding polarizing cytokines.
Macrophages were polarized to M1-like phenotype using 50 ng/mL of interferon gamma (IFNγ, 575306, Biolegend) and 100 ng/mL of bacterial lipopolysaccharide (LPS, L2880, Sigma Aldrich, St. Louis, MO) for 24 hours. To polarize macrophages towards the M2-like phenotype, macrophages were stimulated with 20 ng/mL of IL-4 (214-14, PeproTech) and 20 ng/mL of IL-13 (575904, Biolegend). THP1 monocytes were treated with 5 ng/mL of phorbol 12-myristate 13-acetate (PMA) to induce differentiation into macrophages. Once converted to macrophages, media was replaced to remove PMA prior to treatment and/or polarization. […]

For the compound `CCCCN(Cc1ccc(C(=O)NO)cc1)C(=O)Nc1ccccc1` [NextA, Nexturastat A], in assay [1] (M1 NextA treated macrophages, IgG control group (FIG. 4L)), the maximum phagocytosis reached entry was “approximately 20%”. Moreover, the “phagocytosis rate over time” value in assay [1] (M1 macrophages with SM1 cells, tracked for 4 hr (FIG. 4L)) is listed as “steady increase in phagocytosis over time”. In addition, the M1/M2 ratio result in assay [2] (SM1 tumors) is “increased”. In assay [2] (SM1 tumors (FIG. 6B)), the “M1-like macrophages (CD80+, H2Kd+, F4/80+)” value is “significantly increased” and the “M2-like macrophages (CD206+, CD163+, F4/80+)” value is “significantly decreased”. Further, the “CD3 T cell infiltration” value in assay [2] (SM1 tumors (FIG. 6C)) is given as “increased”. In addition, the “total NKT, CD8+ NKT, and CD137+ CD8+ NKT cells in the TME” value in assay [2] (SM1 tumors (FIG. 6J)) is recorded as “significantly increased”. Besides, the “SIRPα expression on the cell surface” value in assay [3] was “significantly decreased”. Moreover, the “cell surface expression of CD80 and H2” value in assay [4] (A31A7 and BMDMs polarized to M1-like phenotypes, 5 μM (FIG. 1B)) is recorded as “upregulation”. In assay [4] (A31A7 cells and BMDMs, M2, 5 μM (FIG. 1D)), the CD206 surface expression result is on record as “significantly downregulated”.
